According to US20240132522A1, “HETEROCYCLIC COMPOUNDS AND METHODS OF USE THEREOF” (1cBio, Inc., priority 2022, published 2024):
Structures can show the parent of a compound that is named as a salt.

Tests used:
[1] = biological target: recombinant human PARP2 (Homo sapiens, UniProt Q9UGN5); assay: PARP2 fluorescence polarization binding assay; conditions: binding IC50, GST-tagged PARP2 20 nM, PARPi-FL probe 3 nM, 4 h at RT
Method: In some embodiments, the biological assay measures PARP-2 binding by way of fluorescence polarization measurements. In some embodiments, binding of a test compound to recombinant human PARP-2 reduces the amount of binding of a fluorescent probe, and consequently reduces the detected level of fluorescence polarization. […] In some embodiments, the serial dilutions, e.g., 100 nL of serial dilution, 90 nL of serial dilution, 80 nL of serial dilution, 70 nL of serial dilution, 60 nL of serial dilution, 50 nL of serial dilution, 30 nL of serial dilution, 20 nL of serial dilution, or 10 nL of serial dilution, are added to a multi-welled plate, e.g., a 1536-well plate, a 384-well plate, or a 96-well plate. In some embodiments, PARP-2, e.g., GST-tagged PARP-2, is diluted in assay buffer, e.g., 50 μL of assay buffer, 40 μL of assay buffer, e.g., 30 μL of assay buffer, 20 μL of assay buffer, 10 μL of assay buffer, or 5 μL of assay buffer, and is added to the plate. In some embodiments, the plate is centrifuged, e.g., at 1000 rpm for 1 min, and incubated, e.g., incubated for 30 minutes at room temperature (RT). In some embodiments, a fluorescent probe, e.g., 10 μL of 6 nM PARPi-FL (TOCRIS, Cat #6461), is diluted in an assay buffer and is added to the plate. […] In some embodiments, the plate is centrifuged, e.g., at 1000 rpm for 1 minute, and the assay plate is incubated, e.g., for 4 h at RT. In some embodiments, the samples in each well are read using a plate reader, e.g., an Envision instrument using excitation=480 nm, and emission wavelength=FITC FP-P pol 535 nm & FITC FP-S pol 535 nm). […] In some embodiments, binding IC50 values are calculated using XLFit (equation 201: […])^D))), where A=bottom, B=top, C=IC50, and D=slope) with a floating top and bottom for curves. Compounds of the present disclosure were tested in a PARP2 fluorescence polarization binding assay at Pharmaron (Beijing, P.R. China). In this biochemical assay, binding of test compound to recombinant human PARP2 reduces the amount of binding of a fluorescent probe, and consequently reduces the detected level of fluorescence polarization. Test compound stock solutions were prepared in DMSO and then serially diluted into 10 concentrations by 3-fold dilution in a 384-well plate using a TECAN EVO200. […] Samples in each well were read using an Envision instrument (Perkin-Elmer; Ex=480 nm Em=FITC FP-P pol 535 nm & FITC FP-S pol 535 nm). […] Binding IC50 values were calculated using XLFit (equation 201: […])^D))), where A=bottom, B=top, C=IC50, and D=slope) with a floating top and bottom for curves.

[2] = system: DLD-1 BRCA2(−/−) colorectal adenocarcinoma cells; assay: Cell viability assay (Cell Titer-Glo), DLD-1 BRCA2(−/−); type: cell-based; conditions: Homo sapiens, DLD-1, 168 h, 7 days, 200 cells/well
Excerpt: In some embodiments, the biological assay measures the effects that compounds of the present disclosure may have on the viability of cells, e.g., the viability of cancer cells. In some embodiments, DLD-1 wild-type and DLD-1 BRCA2(−/−) colorectal adenocarcinoma cells, an isogenic pair of cell lines differing in the presence and absence, respectively, of both BRCA2 alleles, are used to measure the effect of the disclosed compounds on the viability of cancer cells.
In some embodiments, the cells are harvested during the logarithmic growth period, counted, and seeded at a specified count in the wells of a 96- or 384-well cell culture plate. In some embodiments, after seeding, the cells are incubated, e.g., at 37° C., 5% CO2 overnight. In some embodiments, the cells are treated with compounds, e.g., with serially diluted test compounds at 8-11 concentrations within a desired concentration range, e.g., from 1 nM-10 μM, for the generation of dose-response curves. In some embodiments, the plate is further incubated, e.g., for another 3-7 days in a humidified incubator at 37° C. and 5% CO2. In some embodiments, cell viability is assessed by luminescence measurement after addition of Cell Titer-Glo reagent (Promega, Madison, Wis.) according to the manufacturer's instructions. In some embodiments, cell viability IC50 values are calculated using XLFit, equation 201: y=A+((B−A)/(1+((x/C)^D))), where A=bottom, B=top, C=IC50, and D=slope. In some embodiments, the effects of the test compounds on the viability of other cell lines such as MDA-MB-436, MDA-MB-231, SUM149PT, HCC1395, and UWB1.289 are determined in an analogous method.
Compounds of the present disclosure were tested for their effects on the viability of cancer cells. DLD-1 wild-type and DLD-1 BRCA2(−/−) colorectal adenocarcinoma cells, an isogenic pair of cell lines differing in the presence and absence, respectively, of both BRCA2 alleles, were used. The cells were harvested during the logarithmic growth period, counted, and seeded at 50 cells/well for DLD-1 wild-type and 200 cells/well for DLD-1 BRCA2(−/−) in a 384-well cell culture plate. After seeding, cells were incubated at 37° C., 5% CO2 overnight. Cells were treated with serially diluted test compounds at 10 concentrations from 1.5 nM-30 μM) for generation of dose response curves. The plate was further incubated for another 7 days in a humidified incubator at 37° C. and 5% CO2. Cell viability was assessed by luminescence measurement after addition of Cell Titer-Glo reagent (Promega, Madison, Wis.) according to the manufacturer's instructions. Cell viability IC50 values were calculated using XLFit, equation 201: y=A+((B−A)/(1+((x/C)^D))), where A=bottom, B=top, C=IC50, and D=slope. IC50 values are shown in Table B and are presented in ranges, in which “+++”<300 nM, 300 nM≤“++”<3000 nM, and “+”≥3000 nM. Effects of the test compounds on the viability of other cell lines such as MDA-MB-436, MDA-MB-231, SUM149PT, HCC1395, and UWB1.289 are determined in an analogous method.

recombinant human PARP2, sequence (Q9UGN5 whole entry): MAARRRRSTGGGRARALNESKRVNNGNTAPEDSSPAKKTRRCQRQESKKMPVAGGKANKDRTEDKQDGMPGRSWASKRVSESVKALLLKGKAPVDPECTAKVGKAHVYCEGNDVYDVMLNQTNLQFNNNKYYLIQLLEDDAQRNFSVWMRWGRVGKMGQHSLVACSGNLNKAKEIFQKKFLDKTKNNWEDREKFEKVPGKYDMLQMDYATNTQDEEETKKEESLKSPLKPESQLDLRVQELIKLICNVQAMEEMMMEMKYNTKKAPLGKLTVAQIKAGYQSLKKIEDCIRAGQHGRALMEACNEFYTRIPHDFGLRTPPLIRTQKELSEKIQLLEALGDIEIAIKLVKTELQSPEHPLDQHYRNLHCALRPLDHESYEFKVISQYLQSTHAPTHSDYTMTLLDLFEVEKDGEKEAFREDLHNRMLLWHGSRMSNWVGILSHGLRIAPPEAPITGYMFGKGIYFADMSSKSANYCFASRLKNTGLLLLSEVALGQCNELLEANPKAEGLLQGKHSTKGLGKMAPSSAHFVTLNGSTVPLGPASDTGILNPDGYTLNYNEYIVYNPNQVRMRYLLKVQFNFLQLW

IC50 [1] [µM] | IC50 [2] [µM] | SMILES
≥ 3 | ≥ 3 | CCc1cc2ncc(CNC3CC(Nc4ccc(C(=O)NC)nc4)C3)cc2[nH]c1=O (centres unmarked) [Compound No. 29, 5-((3-(((7-ethyl-6-oxo-5,6-dihydro-1,5-naphthyridin-3-yl)methyl)amino)cyclobutyl)amino)-N-methylpicolinamide]
≥ 3 | ≥ 3 | CCc1cc2ncc(CN3CC4(C3)CN(c3ccc(C(=O)NC)nc3)C4)cc2[nH]c1=O [Compound No. 9, 5-(6-((7-ethyl-6-oxo-5,6-dihydro-1,5-naphthyridin-3-yl)methyl)-2,6-diazaspiro[3.3]heptan-2-yl)-N-methylpicolinamide formate]
≥ 3 | ≥ 3 | CCc1cc2ncc(CN3CCCN(c4ccc(C(=O)NC)nc4)CC3)cc2[nH]c1=O [Compound No. 6, 5-(4-((7-ethyl-6-oxo-5H-1,5-naphthyridin-3-yl)methyl)-1,4-diazepan-1-yl)-N-methylpyridine-2-carboxamide]

SMILES | IC50 [1] [µM] | IC50 [2] [µM]
CCc1cc2ncc(CN3CC4CN(c5ccc(C(=O)NC)nc5)CC4C3)cc2[nH]c1=O (centres unmarked) [Compound No. 7, 5-(5-((7-ethyl-6-oxo-5,6-dihydro-1,5-naphthyridin-3-yl)methyl)hexahydropyrrolo[3,4-c]pyrrol-2(1H)-yl)-N-methylpicolinamide] | ≥ 3 | 0.3 to 3
